Source: patent US20240287052A1, “NOVEL OXAZOLE DERIVATIVE AND PHARMACEUTICAL COMPOSITION FOR PREVENTING OR TREATING ALLERGIC DISEASES COMPRISING THE SAME” (AZCURIS CO., LTD., priority 2021, published 2024)
Read-outs that look alike come from different tables or passages of the source.

Columns and labels:
[1] = test system: IL-6 secretion in the human mast cell line HMC 1.1; test: IL-6 production inhibition assay (IL-33 stimulated HMC 1.1 cells, IL-6 ELISA); type: cell-based; details: for inhibition at 0.1 µM: 0.1 μM compound, read-out: Inhibition of hIL-6 production (%) 0.1 μM; for inhibition at 0.1 µM / inhibition at 1 µM / inhibition at 10 µM: 24 hours; for inhibition at 1 µM: 1 μM compound, read-out: Inhibition of hIL-6 production (%) 1 μM; for inhibition at 10 µM: 10 μM compound, read-out: Inhibition of hIL-6 production (%) 10 μM; for EC50: read-out: Inhibition of hIL-6 production EC50
Method in brief: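 HMC 1.1 cells stimulated with 200 nM recombinant human IL-33 were exposed 24 hours to compound at 10 μM, 25 μM, 30 μM or 50 μM, among other levels. Secreted IL-6 was quantified by ELISA in triplicate against a standard curve and expressed as % of vehicle.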

[2] = test system: Human liver cancer cell line HepG2 cells; test: Cellular viability, WST-8 assay, without or with human liver microsomes; type: cell-based; details: for Cellular viability (%) (+) microsome: HepG2, with human liver microsomes; for Cellular viability (%) (−) microsome: HepG2, without human liver microsomes
Description: (§1) Human liver cancer cell line HepG2 cells were cultured in a medium (high glucose Dulbecco's Modified Eagle Medium, DMEM, HyClone) supplemented with 10% fetal bovine serum (FBS, HyClone) and 1% antibiotic in a thermostat maintained at 37° C. with 5% CO2.
(§2) HepG2 cells, which are adherent cells, were […] or presence of human liver microsomes (Gibco) and NADPH regenerating system.
(§3) Cell cultures were exchanged using […] of medium (high glucose Dulbecco's Modified Eagle Medium, DMEM, HyClone) and incubated for 24 hours.
(§4) After adding 10 μL of WST-8 (abCam), the absorbance was obtained at 460 nm after 5 seconds of orbital shaking with a microplate reader (Tecan, Spark©) 2 hours later.
(§5) The mean of the three values obtained in triplicate was calculated and expressed as % cellular viability compared to vehicle treatment.

[3] = target: T1, IL33 and ST2 binding (Homo sapiens, UniProt O95760);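 also: plate ELISA with coated Flag-tagged human IL-33 and His-tagged human ST2, bound ST2 detected by anti-His HRP and TMB absorbance at 450 nm, 2 h compound incubation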
T1 sequence (O95760 112-270 limits assumed): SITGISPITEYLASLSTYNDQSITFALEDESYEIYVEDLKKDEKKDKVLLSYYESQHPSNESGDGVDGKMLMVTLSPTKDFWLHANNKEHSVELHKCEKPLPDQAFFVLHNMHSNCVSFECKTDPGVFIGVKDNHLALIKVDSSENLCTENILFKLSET

[4] = target: T1, IL33 and ST2 binding; test: biochemical
[5] = Cellular viability, WST-8 assay, without or with human liver microsomes; type: cell-based
Description: as §1, §2, §3, §4, §5

[6] = HepG2, with human liver microsomes, read-out: CC50 (μM) (+) microsome
[7] = HepG2 cells, HepG2, without human liver microsomes, read-out: CC50 (μM) (−) microsome

SMILES | inhibition at 0.1 µM [1] [%] | inhibition at 1 µM [1] [%] | inhibition at 10 µM [1] [%] | EC50 [1] [µM] | Cellular viability (%) (+) microsome ([2]; at 135 μM) [at %] | Cellular viability (%) (−) microsome ([2]; at 135 μM) [at %] | inhibition ([3]; 30 µM) [%] | inhibition ([3]; 100 µM) [%] | IC50 [4] [µM] | Cellular viability (%) (+) microsome ([2]; at 100 μM) [at %] | Cellular viability (%) (−) microsome ([2]; at 100 μM) [at %] | CC50 at 24 h [5, 6] [µM] | CC50 at 24 h [5, 7] [µM] | Cellular viability (%) (+) microsome ([2]; at 160 μM) [at %] | Cellular viability (%) (−) microsome ([2]; at 160 μM) [at %]
CCOC(=O)c1nc(-c2ccc(C(F)(F)F)cc2)oc1-c1ccccc1 [Compound 31, Ethyl 5-phenyl-2-(4-(trifluoromethyl)phenyl)oxazole-4-carboxylate] | 46 | 56 | 69 | 0.23 | 66 | 83 | 110 | 109 | 0.78 | – | – | – | – | – | –
CCOC(=O)c1nc(-c2ccc(C(F)(F)F)cc2)oc1-c1ccc([N+](=O)[O-])cc1 [Compound 34, Ethyl 5-(4-nitrophenyl)-2-(4-(trifluoromethyl)phenyl)oxazole-4-carboxylate] | – | – | – | – | – | – | 108 | 108 | 0.91 | 85 | 87 | – | – | – | –
CCOC(=O)c1nc(-c2ccc(C(F)(F)F)cc2)oc1-c1ccccc1OC [Compound 44, Ethyl 5-(2-methoxyphenyl)-2-(4-(trifluoromethyl)phenyl)oxazole-4-carboxylate] | – | 38 | 77 | 2.56 | – | – | 100 | – | 1.26 | 99 | 68 | – | – | – | –
CCOC(=O)c1nc(-c2ccc(C(F)(F)F)cc2)oc1-c1ccccc1OC(F)(F)F [Compound 52, Ethyl 5-(2-(trifluoromethoxy)phenyl)-2-(4-(trifluoromethyl)phenyl)oxazole-4-carboxylate] | – | 22 | 48 | 2.26 | – | – | 115 | 115 | 7.99 | 97 | 117 | – | – | – | –
CCOC(=O)c1nc(-c2cccc(Cl)c2)oc1-c1ccccc1 [Compound 75, Ethyl 2-(3-chlorophenyl)-5-phenyloxazole-4-carboxylate] | – | 5 | 26 | – | – | – | 93 | 108 | 11.7 | 100 | 106 | – | – | – | –
CCOC(=O)c1nc(-c2ccc(SC)cc2)oc1-c1ccccc1 [Compound 90, Ethyl 2-(4-(methylthio)phenyl)-5-phenyloxazole-4-carboxylate] | 33 | 54 | 55 | 0.49 | 74 | 53 | – | – | – | – | – | 40.8 | 14 | – | –
CCOC(=O)c1nc(-c2ccc(Cl)c(C(F)(F)F)c2)oc1-c1ccccc1 [Compound 98, Ethyl 2-(4-chloro-3-(trifluoromethyl)phenyl)-5-phenyloxazole-4-carboxylate] | – | -12 | 30 | – | – | – | 110 | 110 | 5.21 | 90 | 83 | – | – | – | –
CN1CCN(CCNC(=O)c2nc(-c3cc(F)cc(F)c3)oc2-c2ccccc2[N+](=O)[O-])CC1 [Compound 238, 2-(3,5-Difluorophenyl)-N-(2-(4-methylpiperazin-1-yl)ethyl)-5-(2-nitrophenyl)oxazole-4-carboxamide] | – | 14 | 45 | 6.3 | – | – | 40 | 103 | – | 53 | 49 | 21.3 | 19 | – | –
CN(C)CCNC(=O)c1nc(-c2cccc(Cl)c2)oc1-c1ccccc1 [Compound 240, 2-(3-Chlorophenyl)-N-(2-(dimethylamino)ethyl)-5-phenyloxazole-4-carboxamide] | – | 6 | 44 | 3.7 | – | – | 7 | 70 | – | 50 | 45 | 6.36 | 5.46 | – | –
CSc1ccc(-c2nc(C(=O)NCCN(C)C)c(-c3ccccc3)o2)cc1 [Compound 271, N-(2-(Dimethylamino)ethyl)-2-(4-(methylthio)phenyl)-5-phenyloxazole-4-carboxamide] | – | 14 | 69 | 0.86 | – | – | 31 | 105 | – | 52 | 45 | 6.12 | 3.74 | – | –
CNC(=O)c1nc(-c2ccc(C(F)(F)F)cc2)oc1-c1cccc(SC)c1 [Compound 290, N-Methyl-5-(3-(methylthio)phenyl)-2-(4-(trifluoromethyl)phenyl)oxazole-4-carboxamide] | 28 | 49 | 59 | – | 60 | 47 | 112 | 112 | 4.51 | – | – | – | – | – | –
CCNC(=O)c1nc(-c2ccc(C(F)(F)F)cc2)oc1-c1cccc(SC)c1 [Compound 291, N-Ethyl-5-(3-(methylthio)phenyl)-2-(4-(trifluoromethyl)phenyl)oxazole-4-carboxamide] | 25 | 40 | 66 | 0.49 | – | – | 112 | 111 | 0.64 | – | – | – | – | 102 | 106
CCNC(=O)c1nc(-c2ccc(C(F)(F)F)cc2)oc1-c1cccnc1 [Compound 307, N-Ethyl-5-(pyridin-3-yl)-2-(4-(trifluoromethyl)phenyl)oxazole-4-carboxamide] | 61 | 69 | 79 | 0.11 | – | – | 106 | – | – | – | – | – | – | 108 | 105
CCNC(=O)c1nc(-c2ccc(SC)cc2)oc1-c1ccccc1 [Compound 316, N-Ethyl-2-(4-(methylthio)phenyl)-5-phenyloxazole-4-carboxamide] | 25 | 69 | 77 | 0.35 | – | – | 47 | – | – | – | – | – | – | 100 | 84
